Data on 3 compounds can be found in ChEMBL document CHEMBL3227983, “N-Acetimidoyl- and N-formimidoylthienamycin derivatives: antipseudomonal beta-lactam antibiotics” (J Med Chem, 1979).

Data set [1] relates to Enterobacter cloacae. Description: Antibacterial activity against penicillin-resistant Enterobacter cloacae MB2646 at 25 ug/disk. The following applies: read-out: DIZ. Type of data set: functional.
Data set [2] deals with Pseudomonas aeruginosa. Briefly: Antibacterial activity against penicillin-sensitive Pseudomonas aeruginosa MB2835 at 25 ug/disk. The format is functional. The following applies: read-out: DIZ.
Data set [3] can be described thus: Stability of the compound in amorphous form in deionized water assessed as time at which 90% of initial UV-absorbance remains at 60 mg/ml at 23 degC. The format is physicochemical. The conditions noted are these: buffer.
Data set [4] has as its system Staphylococcus aureus. Description: Antibacterial activity against penicillin-sensitive Staphylococcus aureus MB2985 at 25 ug/disk. The format is functional. The conditions noted are these: read-out: DIZ.
Data set [5] can be described thus: Stability of the compound in amorphous form in 1 M PO4 assessed as time at which 90% of initial UV-absorbance remains at 60 mg/ml at pH 7 at 23 degC. The format is physicochemical. The conditions noted are these: buffer.
Data set [6] relates to Pseudomonas aeruginosa. Briefly: Antibacterial activity against penicillin-resistant Pseudomonas aeruginosa MB3350 at 25 ug/disk. The following applies: read-out: DIZ. Type of data set: functional.
Data set [7] deals with Enterobacter cloacae. Description: Antibacterial activity against penicillin-sensitive Enterobacter cloacae MB2647 at 25 ug/disk. Type of data set: functional. The conditions noted are these: read-out: DIZ.
The nature of data set [8]: Drug degradation in crystalline form at 10 mg/ml. The following applies: read-out: Drug degradation. Type of data set: physicochemical.
The subject of data set [9] is Escherichia coli. Briefly: Antibacterial activity against penicillin-resistant Escherichia coli MB2964 at 25 ug/disk. The format is functional. The following applies: read-out: DIZ.
The test system of data set [10] is Escherichia coli. Description: Antibacterial activity against penicillin-sensitive Escherichia coli MB2482 at 25 ug/disk. Type of data set: functional. The conditions noted are these: read-out: DIZ.
Data set [11] concerns Staphylococcus aureus. Briefly: Antibacterial activity against penicillin-resistant Staphylococcus aureus MB2314 at 25 ug/disk. Type of data set: functional. The following applies: read-out: DIZ.
Data set [12] is described as follows: Stability of the compound in amorphous form assessed as compound remaining after 5 months at 60 mg/ml at 23 degC in presence of 0.1 equiv of NaHCO3. Type of data set: physicochemical. The following applies: read-out: Stability.
Data set [13] can be described thus: Stability of the compound in crystalline form assessed as compound remaining after 6 months at 10 mg/ml at 23 degC in presence of 0.1 equiv of NaHCO3. The format is physicochemical. The following applies: read-out: Stability.
Data set [14] in a line: Stability of the compound in amorphous form assessed as compound remaining after 6 months at 60 mg/ml at 23 degC in presence of 0.1 equiv of NaHCO3. The conditions noted are these: read-out: Stability. Type of data set: physicochemical.
Data set [15] can be described thus: Stability of the compound in crystalline form in deionized water assessed as time at which 90% of initial UV-absorbance remains at 10 mg/ml at 23 degC. The format is physicochemical. The following applies: buffer.
Data set [16] can be described thus: Stability of the compound in amorphous form assessed as compound remaining after 1 month at 60 mg/ml at 23 degC in presence of 0.1 equiv of NaHCO3. Type of data set: physicochemical. The conditions noted are these: read-out: Stability.

A value given as a limit tells only on which side of the number the result lay.

`CC(=N)NCCSC1=C(C(=O)O)N2C(=O)[C@H]([C@@H](C)O)[C@H]2C1`: the zone of inhibition at 25 µg/disc in the data set with Enterobacter cloacae [1] was determined as 27 mm; in the data set with Pseudomonas aeruginosa [2] it was 28 mm; with Staphylococcus aureus [4] it was 38.5 mm; in the data set on Pseudomonas aeruginosa [6] it was 28 mm; in the data set on Enterobacter cloacae [7], 27 mm; in the data set with Escherichia coli [9] it was 29.5 mm. Moreover, the figures for the zone of inhibition at 25 µg/disc with Escherichia coli [10] and in the data set with Staphylococcus aureus [11] were 28 mm and 40 mm, respectively. The figures for the Time in data set [3] and in data set [5] were 5 h and 0.5 h, respectively. The degraded at 10 mg/ml in data set [8] was less than 1%. For the same compound, the remaining at 3652.5 h, 60 mg/ml in data set [12] came to 100%.

In the case of `C[C@@H](O)[C@H]1C(=O)N2C(C(=O)O)=C(SCCN=CN)C[C@H]12` [IMIPENEM ANHYDROUS], the zone of inhibition at 25 µg/disc stood at 27.5 mm with Enterobacter cloacae [1]; 29 mm in the data set with Pseudomonas aeruginosa [2]; 40 mm in the data set on Staphylococcus aureus [4]; 29 mm with Pseudomonas aeruginosa [6]; 27 mm with Enterobacter cloacae [7]; 29.5 mm in the data set with Escherichia coli [9]. Also, the zone of inhibition at 25 µg/disc in the data set with Escherichia coli [10] came to 28.5 mm; in the data set with Staphylococcus aureus [11], 40.5 mm. In addition, the Time in data set [3] stood at 2.5 h; in [5], 0.5 h; in data set [15], 17 h. Besides, the remaining at 4383 h, 10 mg/ml in data set [13] amounted to 100%. Further, the remaining at 4383 h, 60 mg/ml in data set [14] was determined as 80%.

With `C[C@@H](O)[C@H]1C(=O)N2C(C(=O)O)=C(SCCN)C[C@H]12` [THIENAMYCIN], the zone of inhibition at 25 µg/disc in the data set with Enterobacter cloacae [1] is 27 mm; in the data set with Pseudomonas aeruginosa [2], 26 mm; with Staphylococcus aureus [4], 40 mm; in the data set on Pseudomonas aeruginosa [6], 26 mm; in the data set on Enterobacter cloacae [7], 25.5 mm; in the data set on Escherichia coli [9], 29 mm. The zone of inhibition at 25 µg/disc in the data set on Escherichia coli [10] came out at 28.5 mm; in the data set on Staphylococcus aureus [11] it was 41 mm. In addition, the Time in data set [3] and in [5] was 0.5 h throughout. Besides, the remaining at 730.5 h, 60 mg/ml in data set [16] was 80%.
